Results published in patent publication US20130172345A1, “1-ACYL-4-(PHENOXY, BENZYLOXY, OR PHENYLAMINO)-1,2,3,4-TETRAHYDROQUINOLINE DERIVATIVES” (KOWA COMPANY, LTD., priority 2007, published 2013).
Structures can show the parent of a compound that is named as a salt.

Tests used:
[1] = test system: K562 cells, human proerythroblast cells; assay: Hemoglobin production in K562 cells (fluorescence of the porphyrin ring); type: cell-based; settings: 144 h, test compound 6 μM, 3+3 days, non-stimulated state = 100%, read-out: production amount of hemoglobin, % of control (6 μM)
Procedure: K562 cells (obtained from ATCC), which are human proerythroblast cells, were seeded at a density of 1×10^5 cells/1 mL on a 24-well plate by using complete medium (RPMI-1640 medium comprising 10% bovine fetal serum). After adding the test compound having 1000× concentration (1 μL), the cells were incubated for three days in a CO2 incubator (37° C., 5% CO2). After exchanging the medium, the cells were further incubated for three days. Then, the cells were collected and counted. After adjusting them to have 3×10^5 cells, the amount of hemoglobin produced in the cells was determined by measuring fluorescence of the porphyrin ring. Specifically, the cells which had been collected by centrifugation were suspended in 2 M oxalic acid solution (500 μL) and boiled for 30 minutes under heating. After cooling the cells, the fluorescence intensity was measured by Fluorescence micro plate reader (Spectra MAX GeminiEM, manufactured by Molecular Devices Corporation) ([…]). When hemoglobin amount in non-stimulated state, i.e., without addition of any compound, was 100%, the production amount of hemoglobin induced by each compound was calculated (% of control).

[2] = test system: HepG2 cells originating from human liver cancer; assay: EPO production in HepG2 cells (EPO ELISA of culture supernatant, 4% oxygen, 48 hrs); type: cell-based; settings: test compound 3 μM, oxygen 4%, non-stimulated state = 100%, read-out: EPO production amount, % of control (3 μM)
Procedure: HepG2 cells originating from human liver cancer were seeded at a density of 1×10^4 cells per well on a 24-well plate by using minimum essential medium (MEM, manufactured by Sigma) comprising 10% bovine fetal serum. Next day, the medium was exchanged with Dulbecco's modified eagle medium (DMEM, manufactured by Sigma) comprising 10% bovine fetal serum lacking phenol red. Then, the test compound dissolved in DMSO was added thereto to obtain the final concentration of 3 μM or 10 μM while having 400 μl of the medium per well. The cells were incubated for 48 hrs in a CO2 incubator which had been adjusted to have oxygen concentration of 4%, followed by collecting the culture supernatant. The EPO concentration in the culture supernatant was immediately measured by using EPO ELISA kit (manufactured by Roche Diagnostics K.K.). Specific procedures were carried out according to the manufacturer's protocol included in the kit.
When EPO production amount in non-stimulated state, i.e., without addition of any compound, was 100%, the EPO production amount induced by each compound was calculated (% of control).

| SMILES | activity at 6 µM [1] | activity at 3 µM [2] |
| --- | --- | --- |
| CC(=O)N1c2ccccc2C(Nc2ccc(N3CCNCC3)cc2)CC1C (stereo not drawn) [Compound 76, 1-acetyl-2-methyl-4-[(4-piperazinylphenyl)amino]-1,2,3,4-tetrahydroquinoline] | 185% | 227% |
| CC(=O)N1c2ccc(Br)cc2C(Nc2ccc(Cl)cc2)CC1C (stereo not drawn) [Compound 74, 1-acetyl-6-bromo-4-[(4-chlorophenyl)amino]-2-methyl-1,2,3,4-tetrahydroquinoline] | 375% | 398% |
| CC(=O)N1c2ccccc2[C@H](Nc2ccccc2F)C[C@@H]1C (relative stereo) [Compound 22, cis-1-acetyl-4-[(2-fluorophenyl)amino]-2-methyl-1,2,3,4-tetrahydroquinoline] | 383% | 150% |
| CC(=O)N1c2ccc(F)cc2C(Nc2ccc(CC(=O)N(C)C)cc2)CC1C (stereo not drawn) [Compound 125, 1-acetyl-4-[4-(N,N-dimethylaminocarbonylmethyl)phenylamino]-6-fluoro-2-methyl-1,2,3,4-tetrahydroquinoline] | 118% | 148% |
| CC(=O)N1c2ccc(N)cc2C(Nc2ccc(Cl)cc2)CC1C (stereo not drawn) [Compound 95, 1-acetyl-6-amino-4-[(4-chlorophenyl)amino]-2-methyl-1,2,3,4-tetrahydroquinoline] | 158% | 213% |
| CC(=O)N1c2ccccc2C(Nc2ccc(Oc3ccccc3)cc2)CC1C (stereo not drawn) [Compound 17, 1-acetyl-4-[(4-phenoxyphenyl)amino]-2-methyl-1,2,3,4-tetrahydroquinoline] | 517% | 172% |
| CC(=O)N1c2ccc(C(N)=O)cc2[C@H](Nc2ccc(CC(=O)O)cc2)C[C@@H]1C (relative stereo) [Compound 105, cis-1-acetyl-4-[(4-carboxymethylphenyl)amino]-2-methyl-1,2,3,4-tetrahydroquinoline-6-carboxamide] | 358% | 245% |
| CC(=O)N1c2ccccc2[C@H](Oc2ccc(F)cc2F)C[C@@H]1C (relative stereo) [Compound 30, cis-1-acetyl-4-(2,4-difluorophenoxy)-2-methyl-1,2,3,4-tetrahydroquinoline] | 136% | 339% |
| CC(=O)N1CCN(c2ccc(N[C@@H]3C[C@H](C)N(C(C)=O)c4ccccc43)cc2)CC1 (relative stereo) [Compound 77, cis-1-acetyl-4-{[4-(4-acetylpiperazinyl)phenyl]amino}-2-methyl-1,2,3,4-tetrahydroquinoline] | 120% | 221% |
| CC(=O)N1c2ccccc2[C@H](Oc2ccc(F)c(F)c2)C[C@@H]1C (relative stereo) [Compound 31, cis-1-acetyl-4-(3,4-difluorophenoxy)-2-methyl-1,2,3,4-tetrahydroquinoline] | 156% | 302% |
| CC(=O)N1c2ccccc2[C@H](Oc2ccccc2)C[C@@H]1C (relative stereo) [Compound 26, cis-1-acetyl-2-methyl-4-phenoxy-1,2,3,4-tetrahydroquinoline] | 188% | 214% |
| COc1ccc(NC2CC(C)N(C(C)=O)c3ccccc32)cc1 (stereo not drawn) [Compound 10, 1-acetyl-4-[(4-methoxyphenyl)amino]-2-methyl-1,2,3,4-tetrahydroquinoline] | 409% | 172% |
| CC(=O)N1c2ccc(CO)cc2[C@H](Nc2ccc(Cl)cc2)C[C@@H]1C (relative stereo) [Compound 121, cis-1-acetyl-4-[(4-chlorophenyl)amino]-6-hydroxymethyl-2-methyl-1,2,3,4-tetrahydroquinoline] | 149% | 222% |
| CC(=O)N1CCN(c2ccc3c(c2)[C@H](Nc2ccc(Cl)cc2)C[C@H](C)N3C(C)=O)CC1 (relative stereo) [Compound 79, cis-1-acetyl-6-[(4-acetyl)piperazino]-4-[(4-chlorophenyl)amino]-2-methyl-1,2,3,4-tetrahydroquinoline] | 186% | 476% |
| CC1CC(Nc2ccccc2)c2ccccc2N1C(=O)C1CC1 (stereo not drawn) [Compound 47, 1-cyclopropanecarbonyl-2-methyl-4-phenylamino-1,2,3,4-tetrahydroquinoline] | 701% | 292% |
| CC(=O)N1c2ccccc2C(Nc2ccc(C#N)cc2)CC1C (stereo not drawn) [Compound 9, 1-acetyl-4-[(4-cyanophenyl)amino]-2-methyl-1,2,3,4-tetrahydroquinoline] | 406% | 405% |
| CC(=O)N1c2ccc(N3CCOCC3)cc2C(Nc2ccc(Cl)cc2)CC1C (stereo not drawn) [Compound 40, 1-acetyl-4-[(4-chlorophenyl)amino]-2-methyl-6-morpholino-1,2,3,4-tetrahydroquinoline.hydrochloride] | 256% | 144% |
| CC(=O)N1c2ccc(C#N)cc2C(Nc2ccccc2)CC1C (stereo not drawn) [Compound 14, 1-acetyl-6-cyano-2-methyl-4-phenylamino-1,2,3,4-tetrahydroquinoline] | 440% | 257% |
| CC(=O)N1c2ccccc2C(Nc2ccccc2N2CCOCC2)CC1C (stereo not drawn) [Compound 72, 1-acetyl-2-methyl-4-[(2-morpholinophenyl)amino]-1,2,3,4-tetrahydroquinoline] | 577% | 243% |
| CC(=O)N1c2ccccc2C(Nc2cccc(F)c2)CC1C (stereo not drawn) [Compound 16, 1-acetyl-4-[(3-fluorophenyl)amino]-2-methyl-1,2,3,4-tetrahydroquinoline] | 416% | 288% |
| CC(=O)N1c2cc(NS(C)(=O)=O)ccc2C(Nc2ccc(Cl)cc2)CC1C (stereo not drawn) [Compound 107, 1-acetyl-4-[(4-chlorophenyl)amino]-7-methanesulfonylamino-2-methyl-1,2,3,4-tetrahydroquinoline.hydrochloride] | 139% | 130% |
| CC(=O)N1c2ccc(C(N)=O)cc2C(Nc2ccc(N3CCOCC3)cc2)CC1C (stereo not drawn) [Compound 92, 1-acetyl-2-methyl-4-[(4-morpholinophenyl)amino]-1,2,3,4-tetrahydroquinoline-6-carboxamide] | 128% | 192% |
| CNC(=O)N1c2ccc(F)cc2C(Nc2ccc(F)cc2)CC1C (stereo not drawn) [Compound 65, 6-fluoro-4-[(4-fluorophenyl)amino]-2-methyl-1-N-methylcarbamoyl-1,2,3,4-tetrahydroquinoline] | 461% | 414% |
| CC(=O)N1c2ccccc2C(Nc2ccc(CO)cc2)CC1C (stereo not drawn) [Compound 38, 1-acetyl-4-[(4-hydroxymethylphenyl)amino]-2-methyl-1,2,3,4-tetrahydroquinoline] | 190% | 201% |
| CNC(=O)c1ccc2c(c1)C(Nc1ccc(Cl)cc1)CC(C)N2C(C)=O (stereo not drawn) [Compound 114, 1-acetyl-4-[(4-chlorophenyl)amino]-N,2-dimethyl-1,2,3,4-tetrahydroquinoline-6-carboxamide] | 152% | 198% |
| CC(=O)N1c2ccc(-c3nnn[nH]3)cc2C(Nc2ccc(Cl)cc2)CC1C (stereo not drawn) [Compound 119, 1-acetyl-4-[(4-chlorophenyl)amino]-2-methyl-6-(1H-tetrazol-5-yl)-1,2,3,4-tetrahydroquinoline] | 124% | 125% |
| C[C@H]1C[C@@H](Nc2ccc(F)cc2)c2cc(F)ccc2N1C(=O)C1CCCCC1 (relative stereo) [Compound 6, cis-1-cyclohexanecarbonyl-6-fluoro-4-[(4-fluorophenyl)amino]-2-methyl-1,2,3,4-tetrahydroquinoline] | 326% | 225% |
| CC(=O)N1c2ccc(F)cc2C(Nc2ccc(CC(N)=O)cc2)CC1C (stereo not drawn) [Compound 124, 1-acetyl-4-[(4-carbamoylmethylphenyl)amino]-6-fluoro-2-methyl-1,2,3,4-tetrahydroquinoline] | 119% | 147% |
| CC(=O)N1c2ccc(N3CCN(C(=O)C4CCCCC4)CC3)cc2C(Nc2ccc(Cl)cc2)CC1C (stereo not drawn) [Compound 85, 1-acetyl-4-[(4-chlorophenyl)amino]-6-[(4-cyclohexylcarbonyl)piperazino]-2-methyl-1,2,3,4-tetrahydroquinoline] | 189% | 147% |
| CC(=O)N1c2ccc(F)cc2C(Nc2ccc(F)cc2)CC1C (stereo not drawn) [Compound 5, 1-acetyl-6-fluoro-4-[(4-fluorophenyl)amino]-2-methyl-1,2,3,4-tetrahydroquinoline] | 245% | 205% |
